Tests used:
A-10 smooth muscle cells = assay: AVP-induced [3H]-arachidonic acid liberation from A-10 cells; format: cell-based, rat; conditions: 1 μM AVP, FIG. 5
Description: Quantification of [^3H]-Arachidonic Acid Liberation from A-10 Phospholipids—Rat aortic smooth muscle A-10 cells, cultured in 60 mm dishes (2.5×10^5 cells/dish), were radiolabeled with 0.5 μCi [^3H]-arachidonic acid per dish as previously described (29). Cells were washed once with DMEM containing 0.25% fatty acid free bovine serum albumin followed by two washes with DMEM alone. Cells were then incubated with the indicated concentrations of (R)-, (S)-, rac-BEL, or ethanol vehicle (0.1% final concentration) in DMEM for 20 min. This media was removed and the cells were then incubated with DMEM containing 10% heat-inactivated fetal bovine serum in the absence or presence of 1 μM AVP. In some tests, PMA (1 μM) or DOG (10 μM) was added to the medium containing AVP. After 5 mm, 1 ml of this medium was removed, lipids were extracted into 2 ml of chloroform/methanol/acetic acid (25:24:1 v/v) (38), and the remaining cells were scraped into 1 ml of deionized water prior to lipid extraction as described above. The chloroform layer was evaporated under nitrogen and the extracted lipids were separated by thin layer chromatography (petroleum ether/ethyl ether/glacial acetic acid 70:30:1). Regions containing fatty acids and phospholipids were scraped into vials and radioactivity was quantified by liquid scintillation spectrometry.
A-10 cells (2.5×10^5 cells/dish) were radiolabeled with [^3H]-arachidonic acid (0.5 μCi/dish) for 20 hrs. After washing to remove unincorporated [^3H]-arachidonic acid, cells were then incubated with either 1 μM or 5 μM (R)-BEL, (S)-BEL, rac-BEL, or ethanol vehicle (0.1%) in DMEM for 20 mm. This media was removed and the cells were then incubated with 3 ml of DMEM containing 10% heat-inactivated fetal bovine serum with or without 1 μM AVP. After 5 min, 1 ml of this medium was removed and lipids were extracted into 2 ml of chloroform/methanol/acetic acid (25:24:1). The remaining cells were scraped into 1 ml of deionized water and total lipids were extracted as described above. The chloroform layer was evaporated under nitrogen and the extracted lipids were separated by TLC. Regions containing fatty acids and phospholipids were scraped into vials and radioactivity was quantified by liquid scintillation spectrometry. Results are representative of four separate tests.
A-10 cells were radiolabeled with [^3H]-arachidonic acid, washed, and pre-incubated with 5 μM (S)-BEL or ethanol vehicle alone for 15 min as described in FIG. 5. DMEM media containing 10% heat-inactivated fetal bovine serum with or without 1 μM AVP was then added to the cells. After 5 min at 37° C., [^3H]-arachidonic acid released into the media and remaining within the cells (free and incorporated into phospholipids) was extracted into chloroform, separated by TLC, and quantified by liquid scintillation spectrometry as described in “Experimental Procedures”. Results are representative of three separate tests.

[1] = system: MAPK (ERK2) phosphorylation; assay: AVP-induced MAPK phosphorylation in A-10 cells (Western); format: cell-based, rat; conditions: 5 μM, 15 min, 1 μM AVP; FIG. 9

| SMILES | inhibition of AVP-induced AA release (A-10 smooth muscle cells; 5 μM inhibitor, 20 min pretreatment) | AVP-induced phosphorylation of ERK2 [1] | AVP-induced increase in non-esterified [3H]-arachidonic acid (in words) (A-10 smooth muscle cells; 1 and 5 μM inhibitor) |
| --- | --- | --- | --- |
| O=C1O/C(=C/Br)CC[C@@H]1c1cccc2ccccc12 [(R)-BEL, (R)(E)-6-(bromomethylene)-3-(1-naphthalenyl)-2H-tetrahydropyran-2-one] | about 10% | not effected | – |
| O=C1OC(=CBr)CCC1c1cccc2ccccc12 (racemic) [rac-BEL, Racemic (E)-6-(bromomethylene)-3-(1-naphthalenyl)-2H-tetrahydropyran-2-one] | – | not effected | significantly reduced |

Reference: patent US7741344B2, “Process for preparing purified S-BEL and R-BEL and compositions thereof” (Washington University in St. Louis, priority 2002, dated 2010)
